According to patent US11999993B2, “Use of biomarkers in identifying cancer patients that will be responsive to treatment with a PRMT5 inhibitor” (Janssen Pharmaceutica NV, priority 2017, dated 2024):

Assays:
[1] = tested on: LU99a; experiment: Cellular sensitivity, lung cancer cell line panel (SCLC); format: cell-based; conditions: Homo sapiens, LU-99A, PIK3CA T1025A
[2] = tested on: HCC78; experiment: Proliferation sensitivity, NSCLC U2AF1-S34F cell panel; format: cell-based; conditions: Homo sapiens, Adenocarcinoma
[3] = tested on: LC-2/ad; experiment: as above; format: cell-based; conditions: Homo sapiens, Adenocarcinoma
[4] = tested on: HLC1; experiment: Lung cell line panel sensitivity, Cyclin D1 pathway amplified NSCLC; format: cell-based; conditions: HLC1, CDK6 amplified, Squamous Cell Carcinoma
[5] = tested on: NCI-H441; experiment: Proliferation sensitivity, NSCLC U2AF1-S34F cell panel; format: cell-based; conditions: Homo sapiens, Adenocarcinoma
[6] = tested on: EPLC272H; experiment: Lung cell line panel sensitivity, Cyclin D1 pathway amplified NSCLC; format: cell-based; conditions: Homo sapiens, EPLC-272H, Adenocarcinoma
[7] = tested on: H69V; experiment: Cellular sensitivity, lung cancer cell line panel (SCLC); format: cell-based; conditions: PIK3CA G106_R108del
[8] = tested on: NCI-H226; experiment: Lung cell line panel sensitivity, Cyclin D1 pathway amplified NSCLC; format: cell-based; conditions: Homo sapiens; NCI-H226, CDK4 amplified, Adenocarcinoma
[9] = tested on: NCI-H1048; experiment: Cellular sensitivity, lung cancer cell line panel (SCLC); format: cell-based; conditions: Homo sapiens, NCI-H1048, PIK3CA H1047R
[10] = tested on: MCL xenograft models; conditions: multiple MCL xenograft models; Chan-Penebre et al. 2015; cited from earlier work
[11] = target: PRMT5 (Homo sapiens, UniProt O14744); conditions: Chan-Penebre et al., Nat Chem Biol 2015; cited from earlier work
PRMT5, sequence (O14744 whole entry): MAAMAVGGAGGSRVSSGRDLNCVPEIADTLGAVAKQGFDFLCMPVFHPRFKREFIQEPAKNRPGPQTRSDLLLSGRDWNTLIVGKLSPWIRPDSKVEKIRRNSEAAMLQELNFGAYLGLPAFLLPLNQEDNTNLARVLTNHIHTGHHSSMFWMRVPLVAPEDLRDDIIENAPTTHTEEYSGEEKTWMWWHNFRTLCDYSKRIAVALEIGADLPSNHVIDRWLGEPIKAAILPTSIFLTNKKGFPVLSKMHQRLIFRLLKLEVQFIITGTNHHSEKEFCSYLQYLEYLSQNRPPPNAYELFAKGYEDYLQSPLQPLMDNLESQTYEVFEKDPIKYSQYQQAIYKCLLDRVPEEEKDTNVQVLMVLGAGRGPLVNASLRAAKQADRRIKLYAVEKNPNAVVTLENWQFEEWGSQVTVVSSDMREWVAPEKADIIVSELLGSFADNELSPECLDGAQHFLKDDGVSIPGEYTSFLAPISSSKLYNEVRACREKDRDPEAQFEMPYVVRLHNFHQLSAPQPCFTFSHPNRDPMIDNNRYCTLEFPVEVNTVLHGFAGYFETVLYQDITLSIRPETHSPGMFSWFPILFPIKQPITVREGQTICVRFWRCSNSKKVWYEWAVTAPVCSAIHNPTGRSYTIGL
PRMT5, sequence (Q9BQA1 whole entry partner): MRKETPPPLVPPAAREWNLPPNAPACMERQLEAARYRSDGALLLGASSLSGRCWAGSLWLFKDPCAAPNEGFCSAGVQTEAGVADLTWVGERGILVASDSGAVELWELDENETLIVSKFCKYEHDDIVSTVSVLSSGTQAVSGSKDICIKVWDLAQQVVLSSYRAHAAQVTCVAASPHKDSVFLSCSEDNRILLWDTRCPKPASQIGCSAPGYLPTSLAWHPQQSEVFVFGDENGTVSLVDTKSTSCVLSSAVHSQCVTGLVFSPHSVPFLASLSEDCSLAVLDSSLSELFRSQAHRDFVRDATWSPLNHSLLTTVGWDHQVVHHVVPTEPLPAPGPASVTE

Row | Compound | GI50 [1] [nM] | GI50 [2] [nM] | GI50 [3] [nM] | GI50 [4] [nM] | GI50 [5] [nM] | GI50 [6] [nM] | GI50 [7] [nM] | GI50 [8] [nM] | GI50 [9] [nM] | anti-tumor activity [10] | PRMT5 inhibitor potency [11]
1 | Nc1ncnc2c1ccn2[C@@H]1O[C@H](COc2ccc3cc(Br)cnc3c2)[C@@H](O)[C@H]1O [Compound 2] | 129 | 108 | 116 | 96.4 | 98.4 | 98.5 | 85.6 | 205 | 94.6 |  | 
2 | O=C(NC[C@H](O)CN1CCc2ccccc2C1)c1cc(NC2COC2)ncn1 [EPZ015666] |  |  |  |  |  |  |  |  |  | anti-tumor activity in multiple MCL xenograft models | sub-nanomolar
